PubChem BioAssay (NCI)
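Exposure lasted 48 hours, with cells grown in 96-well plates and compounds tested at five concentrations. Definition used: TGI = concentration required for complete inhibition of growth.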

Key:
Test in all cases: NCI tumour cell line growth inhibition, 48 h
UACC-62 melanoma = tested on: UACC-62 melanoma
MCF7 breast = tested on: MCF7 breast
MDA-MB-435 = tested on: MDA-MB-435
NCI-H226 lung = tested on: NCI-H226 lung
SN12C renal = tested on: SN12C renal
SF-539 CNS = tested on: SF-539 CNS
SK-MEL-2 melanoma = tested on: SK-MEL-2 melanoma
MALME-3M melanoma = tested on: MALME-3M melanoma
SK-MEL-28 melanoma = tested on: SK-MEL-28 melanoma
HL-60(TB) leukemia = tested on: HL-60(TB) leukemia

SMILES | TGI (UACC-62 melanoma) | TGI (MCF7 breast) | TGI (MDA-MB-435) | TGI (NCI-H226 lung) | TGI (SN12C renal) | TGI (SF-539 CNS) | TGI (SK-MEL-2 melanoma) | TGI (MALME-3M melanoma) | TGI (SK-MEL-28 melanoma) | TGI (HL-60(TB) leukemia)
COC1C(O)C(O[C@H]2CC[C@@]3(C)C(CC[C@@H]4[C@@H]3CC[C@]3(C)[C@@H](C(C)OC5OC(CO)C(O)C(O)C5O)CC[C@]43O)C2)OC(C)C1OC1OC(CO)C(O)C(O)C1O (stereo partly drawn) | > 100 µM | > 100 µM | > 100 µM | > 100 µM | > 100 µM | > 100 µM | > 100 µM | > 100 µM | > 100 µM | 
CCOC(=O)C1=CC(C)(C(=O)OCC)Nc2c(nc(N)[nH]c2=O)N1 (stereo not drawn) |  | > 10 µM | > 10 µM | > 10 µM | > 10 µM | > 10 µM | > 10 µM | > 10 µM | > 10 µM | 
COc1ccc(NC(C)c2ccncc2)cc1 (stereo not drawn) |  | > 100 µM | > 100 µM | > 100 µM | > 100 µM | > 100 µM | > 100 µM | > 100 µM | > 100 µM | 
CCN1C(=O)C(=C/C=C/c2ccc(N(CC)CC)cc2)C(=O)N(CC)C1=S | > 100 µM | > 100 µM | > 100 µM | > 100 µM | > 100 µM | > 100 µM | > 100 µM |  | > 100 µM | > 100 µM
O=C1OC(c2ccccc2)N(C(=O)c2ccccc2)C1Cc1ccc(OCc2ccccc2)cc1 (stereo not drawn) | > 100 µM | 62.3 µM | > 100 µM | > 100 µM | > 100 µM | > 100 µM | > 100 µM |  | > 100 µM | > 100 µM
c1ccc(C2CC(=NC3CCCCC3)Nc3ccccc3N2)cc1 (stereo not drawn) | > 100 µM |  | > 100 µM | > 100 µM | > 100 µM |  | > 100 µM | 50.1 µM | > 100 µM | > 100 µM
C[C@H]1OC(=O)[C@@H]2N=NN(Cc3ccccc3)[C@H]12 | > 100 µM | > 100 µM | > 100 µM |  | > 100 µM | > 100 µM | > 100 µM | > 100 µM | > 100 µM | 
O=C1C=CC(=O)C(CNc2ccc(C(=O)OCc3ccccc3)cc2)=C1 | 22.6 µM | 18.5 µM | 18.7 µM | 28 µM | 19.3 µM | 7.29 µM | 30 µM | 7.22 µM | 17.4 µM | 
O=C(O)/C=C\C(=O)Nc1ccc(S(=O)(=O)c2ccc(NC(=O)/C=C\C(=O)O)cc2)cc1 | > 100 µM |  |  | > 100 µM | > 100 µM | > 100 µM | > 100 µM | > 100 µM | > 100 µM | > 100 µM
C/C(=N\Nc1nc2ccccc2s1)c1ccc2ccccc2n1 | > 100 µM | > 100 µM | > 100 µM |  | > 100 µM | > 100 µM | > 100 µM | > 100 µM | > 100 µM | 52.9 µM
O=[N+]([O-])c1cccc2c(N=Nc3ccc4ccccc4c3O)c(O)cc(S(=O)(=O)O)c12 | > 100 µM |  | > 100 µM | > 100 µM | > 100 µM |  | > 100 µM | 80.6 µM | > 100 µM | 91.5 µM
